Tested on: Arthrobacter ureafaciens-derived neuraminidase
Test: Reactivity of probe with Arthrobacter ureafaciens-derived neuraminidase (time-dependent fluorescence intensity)
Assay type: biochemical
Settings: probe 1 μM, 0.01 U neuraminidase, 100 mm NaOAc, 2 mM CaCl2, pH7.4, 37° C., excitation 490 nm, emission 520 nm
Procedure: A probe (HMRef-S-Neu5Ac) was dissolved in dimethyl sulfoxide (DMSO, fluorescence measurement grade, Dojindo Laboratories) to obtain a stock solution. The stock solution was diluted with a buffer solution (100 mm NaOAc, 2 mM CaCl2, pH7.4) such that a final concentration of the probe became 1 μM, to obtain a measurement solution.
A fluorescence spectrum of the measurement solution was obtained by Hitachi F-700, every one second (excitation wavelength 490 nm, emission wavelength 520 nm). Sixty seconds after initiation of measurement, 0.01 U of Arthrobacter ureafaciens-derived neuraminidase was added singly or in combination with an enzyme inhibitor.

CC(=O)N[C@H]1[C@H]([C@H](O)[C@H](O)CO)O[C@@](Oc2ccc(COc3ccc4c(c3)Oc3cc(NCC(F)(F)F)ccc3C43OCc4ccccc43)cc2)(C(=O)O)C[C@@H]1O (stereo partly shown) [HMRef-S-Neu5Ac]
increase of fluorescence intensity by the reaction with the bacterium-derived neuraminidase: 130 times

From US12371752B2 (priority 2019, dated 2025)
